Assays:
[1] = biological target: T1, human recombinant COX-2 (Homo sapiens, UniProt P35354); assay: In vitro COX-2 inhibition assay kit (Cayman); type: biochemical; details: for COX-2 SI: Selectivity index = COX-1 IC50/COX-2 IC50; for IC50: human recombinant COX-2, mean ± SEM, n = 3 replicates
T1 sequence (P35354 18-604): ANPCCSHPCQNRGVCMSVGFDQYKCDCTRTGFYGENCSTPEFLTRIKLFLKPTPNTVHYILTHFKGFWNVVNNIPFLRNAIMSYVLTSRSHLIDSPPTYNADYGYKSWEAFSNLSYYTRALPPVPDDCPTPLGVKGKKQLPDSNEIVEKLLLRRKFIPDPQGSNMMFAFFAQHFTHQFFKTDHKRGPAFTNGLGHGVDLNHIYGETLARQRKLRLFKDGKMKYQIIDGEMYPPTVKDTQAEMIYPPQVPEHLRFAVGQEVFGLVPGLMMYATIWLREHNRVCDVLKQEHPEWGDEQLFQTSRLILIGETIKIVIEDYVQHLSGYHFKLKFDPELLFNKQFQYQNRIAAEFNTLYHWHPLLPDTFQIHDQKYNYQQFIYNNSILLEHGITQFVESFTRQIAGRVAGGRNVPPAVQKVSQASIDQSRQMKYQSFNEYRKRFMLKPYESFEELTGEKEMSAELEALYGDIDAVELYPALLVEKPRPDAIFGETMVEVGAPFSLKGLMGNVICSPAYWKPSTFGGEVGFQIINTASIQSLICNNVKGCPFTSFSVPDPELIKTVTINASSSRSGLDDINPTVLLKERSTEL
Description: The half-maximal inhibitory concentration (IC50, μM) was determined, and the COX-2 selectivity index (SI) was calculated as IC50 (COX-1)/IC50 (COX-2).

[2] = system: OVCAR-4; assay: NCI single dose screen, OVCAR-4; type: cell-based; details: Homo sapiens; OVCAR-4, ovarian cancer; single dose 10^−5 M; read-out: growth inhibition percentage
Description: (§1) Screening of the anticancer activity of the newly synthesised compounds (6a, 6c, 6d, 6e, 6j, 6l, 6m, 6n, 6o, and 6p) was performed by the US National Cancer Institute (NCI) using 60 different human tumour cell lines in accordance with standard procedures formerly reported.
(§2) In vitro anticancer screening was carried out for the selected compounds at a single dose (10^−5 M) against 60 different human tumour cell lines of nine different cancer cell types: leukaemia, lung, colon, CNS, melanoma, ovarian, renal, prostate, and breast cancers.

[3] = system: SK-OV-3; assay: NCI single dose screen, SK-OV-3; type: cell-based; details: Homo sapiens; SK-OV-3, ovarian cancer; single dose 10^−5 M; read-out: growth inhibition percentage
Description: as §1, §2

[4] = system: SK-MEL-28; assay: NCI single dose screen, SK-MEL-28; type: cell-based; details: Homo sapiens; SK-MEL-28, melanoma; single dose 10^−5 M; read-out: growth inhibition percentage
Description: as §1, §2

[5] = system: UO-31; assay: NCI single dose screen, UO-31; type: cell-based; details: Homo sapiens; UO-31, renal cancer; single dose 10^−5 M; read-out: growth inhibition percentage
Description: as §1, §2

[6] = Cell viability assay against normal cell line (MTS); type: cell-based; details: mouse, RAW 264.7 cells, concentrations up to 50 μM, read-out: cell viability percentage of the control values
Description: To evaluate the possible non-selective cytotoxic effect of the investigated compounds (6a, 6c, 6d, 6e, 6j, 6l, 6m, 6n, 6o, and 6p) on normal cells, their effect on RAW 264.7 cells viability was assessed at different concentrations (12.5, 25, 50, and 100 µM). Cell viability was measured using 3-(4,5-dimethylthiazol-2-yl)-5-(3-carboxymethoxyphenyl)-2-(4 sulfophenyl)-2H-tetrazolium (MTS) assay (Promega, Madison, Wisconsin) according to the manufacturer’s instructions.

[7] = system: HL-60(TB); assay: NCI single dose screen, HL-60(TB); type: cell-based; details: Homo sapiens, leukaemia, single dose 10^−5 M, read-out: growth inhibition percentage
Description: as §1, §2

[8] = system: T-47D; assay: NCI single dose screen, T-47D; type: cell-based; details: Homo sapiens, T47D, breast cancer, single dose 10^−5 M, read-out: growth inhibition percentage
Description: as §1, §2

[9] = system: HS 578T; assay: NCI single dose screen, HS 578T; type: cell-based; details: Homo sapiens, breast cancer, single dose 10^−5 M, read-out: growth inhibition percentage
Description: as §1, §2

[10] = system: U251; assay: NCI single dose screen, U251; type: cell-based; details: Homo sapiens, U-251; U251, CNS cancer; single dose 10^−5 M; read-out: growth inhibition percentage
Description: as §1, §2

[11] = system: OVCAR-8; assay: NCI single dose screen, OVCAR-8; type: cell-based; details: Homo sapiens; OVCAR-8, ovarian cancer; single dose 10^−5 M; read-out: growth inhibition percentage
Description: as §1, §2

[12] = system: NCI-H322M; assay: NCI single dose screen, NCI-H322M; type: cell-based; details: Homo sapiens, non-small cell lung cancer, single dose 10^−5 M, read-out: growth inhibition percentage
Description: as §1, §2

[13] = system: HOP-92; assay: NCI single dose screen, HOP-92; type: cell-based; details: Homo sapiens; HOP-92, non-small cell lung cancer; single dose 10^−5 M; read-out: growth inhibition percentage
Description: as §1, §2

[14] = system: NCI-H23; assay: NCI single dose screen, NCI-H23; type: cell-based; details: Homo sapiens; NCI-H23, non-small cell lung cancer; single dose 10^−5 M; read-out: growth inhibition percentage
Description: as §1, §2

[15] = system: COLO 205; assay: NCI single dose screen, COLO 205; type: cell-based; details: Homo sapiens; COLO 205, colon cancer; single dose 10^−5 M; read-out: growth inhibition percentage
Description: as §1, §2

[16] = system: K-562; assay: NCI single dose screen, K-562; type: cell-based; details: Homo sapiens, K562; K-562, leukaemia; single dose 10^−5 M; read-out: growth inhibition percentage
Description: as §1, §2

[17] = system: HCT-116; assay: NCI single dose screen, HCT-116; type: cell-based; details: Homo sapiens; HCT-116, colon cancer; single dose 10^−5 M; read-out: growth inhibition percentage
Description: as §1, §2

[18] = system: SN12C; assay: NCI single dose screen, SN12C; type: cell-based; details: Homo sapiens, renal cancer, single dose 10^−5 M, read-out: growth inhibition percentage
Description: as §1, §2

[19] = system: DU-145; assay: NCI single dose screen, DU-145; type: cell-based; details: Homo sapiens; DU-145, prostate cancer; single dose 10^−5 M; read-out: growth inhibition percentage
Description: as §1, §2

[20] = system: BT-549; assay: NCI single dose screen, BT-549; type: cell-based; details: Homo sapiens; BT-549, breast cancer; single dose 10^−5 M; read-out: growth inhibition percentage
Description: as §1, §2

[21] = system: HCC-2998; assay: NCI single dose screen, HCC-2998; type: cell-based; details: Homo sapiens; HCC-2998, colon cancer; single dose 10^−5 M; read-out: growth inhibition percentage
Description: as §1, §2

SMILES	IC50 [1] [µM]	inhibition at 10 µM [2] [%]	inhibition at 10 µM [3] [%]	inhibition at 10 µM [4] [%]	inhibition at 10 µM [5] [%]	viability [6] [%]	inhibition at 10 µM [7] [%]	inhibition at 10 µM [8] [%]	inhibition at 10 µM [9] [%]	inhibition at 10 µM [10] [%]	inhibition at 10 µM [11] [%]	inhibition at 10 µM [12] [%]	inhibition at 10 µM [13] [%]	inhibition at 10 µM [14] [%]	inhibition at 10 µM [15] [%]	inhibition at 10 µM [16] [%]	inhibition at 10 µM [17] [%]	inhibition at 10 µM [18] [%]	inhibition at 10 µM [19] [%]	inhibition at 10 µM [20] [%]	other results
CN1c2ccccc2C(=O)N(NC(=O)Nc2ccccc2)C1c1ccc(F)cc1 (stereo not drawn) [Compound 6d, 1-(2-(4-Fluorophenyl)-1-methyl-4-oxo-1,4-dihydroquinazolin-3(2H)-yl)-3-phenylurea]	2.07 ± 1.39	< 10	< 10	< 10	36.2	> 90	< 10	< 10	< 10	< 10	< 10	< 10	< 10	< 10	< 10	< 10	< 10	< 10	< 10	< 10	COX-2 SI [1]: 2.20; inhibition at 10 µM [21]: < 10%
CN1c2ccccc2C(=O)N(NC(=O)Nc2ccc(F)cc2)C1c1ccc([N+](=O)[O-])cc1 (stereo not drawn) [Compound 6o, 1-(4-Fluorophenyl)-3–(1-methyl-2-(4-nitrophenyl)-4-oxo-1,4-dihydroquinazolin-3(2H)-yl)urea]	10.1 ± 1.01	16.4	< 10	< 10	41.3	> 90	< 10	< 10	< 10	< 10	< 10	< 10	< 10	< 10	< 10	17.5	21.6	< 10	< 10	< 10	inhibition at 10 µM [21]: < 10%
COc1ccc(NC(=O)NN2C(=O)c3ccccc3N(C)C2c2ccc(OC)cc2)cc1 (stereo not drawn) [Compound 6j, 1-(4-Methoxyphenyl)-3-(2-(4-methoxyphenyl)-1-methyl-4-oxo-1,4-dihydroquinazolin-3(2H)-yl)urea]	5.04 ± 1.56	< 10	< 10	< 10	24.6	> 90	< 10	< 10	< 10	< 10	< 10	< 10	< 10	< 10	< 10	< 10	40.6	< 10	< 10	70.1	COX-2 SI [1]: 5.34; inhibition at 10 µM [21]: < 10%
CC1N(NC(=O)Nc2ccc(F)cc2)C(=O)c2ccccc2N1C (stereo not drawn) [Compound 6l, 1–(1,2-Dimethyl-4-oxo-1,4-dihydroquinazolin-3(2H)-yl)-3-(4-fluorophenyl)urea]	1.49 ± 1.11	< 10	< 10	< 10	< 10	> 90	< 10	< 10	< 10	< 10	< 10	< 10	< 10	< 10	< 10	< 10	< 10	< 10	< 10	< 10	COX-2 SI [1]: 0.05; inhibition at 10 µM [21]: < 10%
CN1c2ccccc2C(=O)N(NC(=O)Nc2ccc(F)cc2)C1c1ccc(F)cc1 (stereo not drawn) [Compound 6n, 1-(4-Fluorophenyl)-3-(2–(4-fluorophenyl)-1-methyl-4-oxo-1,4-dihydroquinazolin-3(2H)-yl)urea]	0.65 ± 1.3	29.7	22.9	< 10	57.1	> 90	< 10	11.7	19.7	< 10	< 10	< 10	< 10	< 10	< 10	22.1	22.9	< 10	< 10	< 10	COX-2 SI [1]: 16.12; inhibition at 10 µM [21]: < 10%
COc1ccc(C2N(NC(=O)Nc3ccc(F)cc3)C(=O)c3ccccc3N2C)cc1 (stereo not drawn) [Compound 6p, 1-(4-Fluorophenyl)-3-(2–(4-methoxyphenyl)-1-methyl-4-oxo-1,4-dihydroquinazolin-3(2H)-yl)urea]	9.28 ± 1.04	< 10	< 10	< 10	42.6	> 90	< 10	< 10	< 10	< 10	< 10	< 10	< 10	< 10	< 10	< 10	14	< 10	< 10	< 10	COX-2 SI [1]: 9.54; inhibition at 10 µM [21]: < 10%
CN1CN(NC(=O)Nc2ccccc2)C(=O)c2ccccc21 [Compound 6a, 1-(1-Methyl-4-oxo-1,4-dihydroquinazolin-3(2H)-yl)-3-phenylurea]	68.3 ± 1.89	< 10	< 10	< 10	< 10	> 90	< 10	< 10	< 10	< 10	< 10	< 10	< 10	< 10	< 10	< 10	< 10	< 10	< 10	< 10	COX-2 SI [1]: 0.18; inhibition at 10 µM [21]: < 10%
